Data as given in patent US10538567B2, “Compounds as peptidic trigonal GLP1/glucagon/GIP receptor agonists” (priority 2016, dated 2020).
Numbered stars: 1 amine (or outer) side, 2 acyl side, 3 side chain; on linkers, the order of the positions; unused ones are H or OH. Square brackets hold non-standard residues; d marks the D form. Side chains are listed from the residue outwards. Peptide text beside a SMILES is read from it. * marks the point of attachment. γGlu = O=C(O)[C@H](CCC(=O)[*:2])N[*:1]; Palmitoyl = CCCCCCCCCCCCCCCC(=O)*; Aib = CC(C)(N)C(=O)O

Experiments:
human GLP-1 receptor = target: T1, human GLP-1 receptor (Homo sapiens, UniProt P43220); test: cAMP response (HTRF) of HEK-293 cells stably expressing human GLP-1 receptor; format: cell-based; settings: Table 8; read-out: EC50 hGLP-1R
T1 construct: expressed in transfected cells; host or cells: HEK-293
Method: cAMP content of cells was determined using a kit from Cisbio Corp. (cat. no. 62AM4PEJ) based on HTRF (Homogenous Time Resolved Fluorescence). For preparation, cells were split into T175 culture flasks and grown overnight to near confluency in medium (DMEM/10% FBS). Medium was then removed and cells washed with PBS lacking calcium and magnesium, followed by proteinase treatment with accutase (Sigma-Aldrich cat. no. A6964). Detached cells were washed and resuspended in assay buffer (1×HBSS; 20 mM HEPES, 0.1% BSA, 2 mM IBMX) and cellular density determined. They were then diluted to 400000 cells/ml and 25 μl-aliquots dispensed into the wells of 96-well plates. For measurement, 25 μl of test compound in assay buffer was added to the wells, followed by incubation for 30 minutes at room temperature.
Potencies of peptidic compounds at the GLP-1, glucagon and GIP receptors were determined by exposing cells expressing human glucagon receptor (hGlucagon R), human GIP receptor (hGIP-R) or human GLP-1 receptor (hGLP-1 R) to the listed compounds at increasing concentrations and measuring the formed cAMP as described in Methods.

male ApoE KO mice = test: Anti-atherosclerotic activity in ApoE KO mice, 16 weeks minipump infusion; format: in vivo; settings: 150 μg/kg/day; for reduction of atherosclerotic plaques relative to vehicle control: 4 months (16 weeks) s.c. minipump; for LDL-cholesterol: 16 weeks
Text: The apolipoprotein E (ApoE) knockout (KO) mouse model is widely used to investigate atherosclerosis. These mice spontaneously develop atherosclerotic lesions that are morphologically similar to those observed in humans (Meir & Leitersdorf 2004, Arterioscler Thromb Vasc Biol 24: 1006-1014, Rosenfeld et al. 2000, Arterioscler Thromb Vasc Biol 20: 2587-2592).
Male ApoE KO mice (B.129P2-apoetm1Unc/J) were randomly allocated to control or treatment groups (N=15 per group); wild-type mice (C57BL6/J) received vehicle treatment and acted as a second, healthy control.
ApoE KO and wild-type mice received constant 16 weeks infusion using subcutaneous osmotic minipumps (ALZET™) filled with either vehicle (sterile acetate buffer, pH 4.5), Peptides SEQ ID NO. 6 & SEQ ID NO. 11 (150 μg/kg/day) or with Liraglutide (600 μg/kg/day). Body weight and food intake was monitored throughout the study on a weekly basis.
Blood samples for blood lipid analysis were drawn before treatment and at weeks 7 and 16 to analyze total cholesterol, low density lipoprotein (LDL) cholesterol and high density lipoprotein (HDL) cholesterol (not shown).
The aorta was dissected and aortic atherosclerotic plaque formation was measured as absolute and relative plaque area (% oilred stained area of total aortic surface area) using quantitative and automated image analysis.

T1 sequence (P43220 24-463): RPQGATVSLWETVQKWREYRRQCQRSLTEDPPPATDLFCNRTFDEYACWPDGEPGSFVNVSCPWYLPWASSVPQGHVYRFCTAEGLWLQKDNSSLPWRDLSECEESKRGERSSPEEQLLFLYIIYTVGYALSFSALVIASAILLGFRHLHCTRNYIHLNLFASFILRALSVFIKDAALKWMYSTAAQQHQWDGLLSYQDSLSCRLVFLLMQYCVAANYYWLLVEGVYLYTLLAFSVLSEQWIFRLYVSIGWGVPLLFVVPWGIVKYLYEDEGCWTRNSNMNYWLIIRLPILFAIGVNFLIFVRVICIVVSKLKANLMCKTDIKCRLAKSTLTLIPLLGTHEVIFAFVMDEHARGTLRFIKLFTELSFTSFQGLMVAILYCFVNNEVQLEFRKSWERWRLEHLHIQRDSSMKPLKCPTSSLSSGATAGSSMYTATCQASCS

EC50 (human GLP-1 receptor) [pM]	Structure (SMILES)	reduction of atherosclerotic plaques relative to vehicle control (male ApoE KO mice) [%]	LDL-cholesterol (male ApoE KO mice)
1.4	CCCCCCCCCCCCCCCC(=O)N[C@@H](CCC(=O)N[C@@H](CCC(=O)NCCCC[C@H](NC(=O)[C@H](CC(C)C)NC(=O)[C@H](CCCCN)NC(=O)[C@H](CO)NC(=O)[C@H](CC(C)C)NC(=O)[C@H](CC(=O)O)NC(=O)[C@H](CO)NC(=O)[C@@H](NC(=O)[C@H](Cc1ccccc1)NC(=O)[C@@H](NC(=O)CNC(=O)[C@H](Cc1c[nH]cn1)NC(=O)C(C)(C)NC(=O)[C@@H](N)Cc1c[nH]cn1)[C@@H](C)O)[C@@H](C)O)C(=O)N[C@@H](CCC(=O)O)C(=O)N[C@@H](CCC(=O)O)C(=O)N[C@@H](CCC(N)=O)C(=O)N[C@@H](CCCNC(=N)N)C(=O)N[C@@H](CCC(N)=O)C(=O)N[C@@H](CCCCN)C(=O)N[C@@H](CCC(=O)O)C(=O)N[C@@H](Cc1ccccc1)C(=O)N[C@H](C(=O)N[C@@H](CCC(=O)O)C(=O)N[C@@H](Cc1c[nH]c2ccccc12)C(=O)N[C@@H](CC(C)C)C(=O)N[C@@H](CCCCN)C(=O)N[C@@H](C)C(=O)NCC(=O)NCC(=O)N[C@@H](Cc1c[nH]cn1)C(=O)N1CCC[C@H]1C(=O)N[C@@H](CO)C(=O)NC(C)(C)C(=O)N[C@@H](CCCCN)C(=O)N1CCC[C@H]1C(=O)N1CCC[C@H]1C(=O)N1CCC[C@H]1C(=O)N[C@@H](CCCCN)C(N)=O)[C@@H](C)CC)C(=O)O)C(=O)O [SEQ ID NO: 6, H-Aib-H-G-T-F-T-S-D-L-S-K-L-K[gGlu-gGlu-Palm]-E-E-Q-R-Q-K-E-F-I-E-W-L-K-A-G-G-H-P-S-Aib-K-P-P-P-K-NH2]	63	marked reduction
	CCCCCCCCCCCCCCCC(=O)N[C@@H](CCC(=O)N[C@@H](CCC(=O)NCCCC[C@H](NC(=O)[C@H](CC(C)C)NC(=O)[C@H](CCCCN)NC(=O)[C@H](CO)NC(=O)[C@H](CC(C)C)NC(=O)[C@H](CC(=O)O)NC(=O)[C@H](CO)NC(=O)[C@@H](NC(=O)[C@H](Cc1ccccc1)NC(=O)[C@@H](NC(=O)CNC(=O)[C@H](Cc1c[nH]cn1)NC(=O)C(C)(C)NC(=O)[C@@H](N)Cc1c[nH]cn1)[C@@H](C)O)[C@@H](C)O)C(=O)N[C@@H](CCC(=O)O)C(=O)N[C@@H](CCC(=O)O)C(=O)N[C@@H](CCC(N)=O)C(=O)N[C@@H](CCCNC(=N)N)C(=O)N[C@@H](CCC(N)=O)C(=O)NC(C)(C)C(=O)N[C@@H](CCC(=O)O)C(=O)N[C@@H](Cc1ccccc1)C(=O)N[C@H](C(=O)N[C@@H](CCC(=O)O)C(=O)N[C@@H](Cc1c[nH]c2ccccc12)C(=O)N[C@@H](CC(C)C)C(=O)N[C@@H](CCCCN)C(=O)N[C@@H](C)C(=O)N[C@H](C)C(=O)NCC(=O)N1CCC[C@H]1C(=O)N1CCC[C@H]1C(=O)N[C@@H](CO)C(=O)NC(C)(C)C(=O)N[C@@H](CCCCN)C(=O)N1CCC[C@H]1C(=O)N1CCC[C@H]1C(=O)N1CCC[C@H]1C(=O)N[C@@H](CCCCN)C(N)=O)[C@@H](C)CC)C(=O)O)C(=O)O [SEQ ID NO: 11, H-Aib-H-G-T-F-T-S-D-L-S-K-L-K[gGlu-gGlu-Palm]-E-E-Q-R-Q-Aib-E-F-I-E-W-L-K-A-dAla-G-P-P-S-Aib-K-P-P-P-K-NH2] (H-H[Aib]HGTFTSDLSKLK([γGlu-γGlu-Palmitoyl])EEQRQ[Aib]EFIEWLKA[dA]GPPS[Aib]KPPPK-NH2)	73	marked reduction
